In patent US10961216B2, “Small molecule modulators of the androgen receptor” (Massachusetts Institute of Technology, priority 2017, dated 2021):
pIC50: −log10 of the molar value.

Legend:
aggregation monitoring = format: physicochemical; settings: at IC50 in RPMI, DMSO, or PBS
Protocol: All compounds were evaluated in a reporter gene assay (22Rv1 cell line lentiviral transduced with CMV-firefly luciferase) to monitor transcriptional effects and two cell viability assays (Cell-titer blue; PC3 cell line, an AR insensitive cell line, and LNCaP cell line, an AR sensitive cell line). The compounds were also monitored for aggregation.

DU-145 (AR-) cell lines = assay: cell proliferation, DU-145; format: cell-based; settings: 72 hours
22Rv1 (AR+) cell lines = assay: cell proliferation, 22Rv1; format: cell-based; settings: 72 hours
prostate cancer cell = prostate cancer cell proliferation, different cancer cell lines; format: cell-based; settings: 72 hours
LNCaP (AR+) cell lines = assay: cell proliferation, LNCaP; format: cell-based, human; settings: 72 hours
LNCaP = LNCaP reporter assay; format: cell-based; settings: Homo sapiens
Excerpt: (§1) To meet this need, compounds binding to AR-v7 were identified using the combination of a small molecule microarray (SMM) screen of 50,000 compounds, qPCR, and reporter assays. The SMM was screened against a functional AR-truncate composed of the NTD and DBD (exons 1-3) and therefore targeting these domains specifically. Candidate compounds were further evaluated in a series of assays designed to show specificity to AR-sensitive cell lines.
Compounds of the invention may also be identified via a reporter assay. Reporter assays are commonly used to study signaling pathways, gene expression and regulation at the transcriptional level, and the structure of regulatory elements. In general, a reporter assay comprises a regulatory element of interest (e.g. promoter DNA) along with a reporter gene (e.g., gene encoding a reporter protein) cloned into a vector and transfected into cells. In certain embodiments, a reporter is a protein. In certain embodiments, a reporter is a protein with an easily measureable activity. “Easily measureable activity” (or simply “activity”) can refer to any activity that can be measured through methods known in the art, such as fluorescence, enzymatic activities that generate fluorescent or luminescent products, or indirectly with antibodies. […]

AR-v7 = target: T1, AR-v7 (Homo sapiens, UniProt P10275); assay: small molecule microarray (SMM) screen, binding to AR-v7; settings: SMM screened against AR-truncate of NTD and DBD (exons 1-3), with qPCR and reporter assays
T1 construct: screened against a functional AR-truncate composed of the NTD and DBD (exons 1-3)
T1 sequence (P10275 1-628 limits assumed): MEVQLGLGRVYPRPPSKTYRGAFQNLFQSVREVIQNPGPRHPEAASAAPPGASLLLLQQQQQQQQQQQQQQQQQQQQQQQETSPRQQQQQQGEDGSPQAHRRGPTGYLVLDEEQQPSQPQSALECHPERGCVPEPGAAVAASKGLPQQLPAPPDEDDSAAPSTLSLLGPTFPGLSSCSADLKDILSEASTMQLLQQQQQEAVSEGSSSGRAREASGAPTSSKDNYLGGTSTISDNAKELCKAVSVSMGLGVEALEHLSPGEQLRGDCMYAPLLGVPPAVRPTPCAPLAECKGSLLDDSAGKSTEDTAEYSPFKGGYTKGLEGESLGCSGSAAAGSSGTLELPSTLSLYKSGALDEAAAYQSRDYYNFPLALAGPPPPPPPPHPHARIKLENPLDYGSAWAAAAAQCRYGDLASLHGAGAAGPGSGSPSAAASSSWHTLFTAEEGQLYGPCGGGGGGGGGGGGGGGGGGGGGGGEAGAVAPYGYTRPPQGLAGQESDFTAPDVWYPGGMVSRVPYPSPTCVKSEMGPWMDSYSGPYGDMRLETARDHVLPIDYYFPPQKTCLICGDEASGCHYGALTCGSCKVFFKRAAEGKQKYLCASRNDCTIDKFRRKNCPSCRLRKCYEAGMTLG
Excerpt: as §1

VCaP (AR+) cell lines = assay: cell proliferation, VCaP; format: cell-based; settings: 72 hours
PC3 (AR-) cell lines = assay: cell proliferation, PC3; format: cell-based; settings: 72 hours

Row | formation of aggregates (aggregation monitoring) | pIC50 (LNCaP) | binding to AR-v7 (AR-v7) | SMILES | cell proliferation (percent confluence) (DU-145 (AR-) cell lines) | cell proliferation (percent confluence) (22Rv1 (AR+) cell lines) | prostate cancer cell proliferation (relative proliferation, percent confluence) (prostate cancer cell) | cell proliferation (percent confluence) (LNCaP (AR+) cell lines) | cell proliferation (percent confluence) (VCaP (AR+) cell lines) | cell proliferation (percent confluence) (PC3 (AR-) cell lines)
1 | does not form aggregates | 5.27 | found to bind to AR-v7 | O=C(NCCC1C[C@@H]2C=C[C@H]1C2)c1cccc(OC2CCN(C(=O)C3CC3)CC2)c1 (stereo partly drawn) [Compound (1), N-(2-((1S,4S)-bicyclo[2.2.1]hept-5-en-2-yl)ethyl)-3-((1-(cyclopropanecarbonyl)piperidin-4-yl)oxy)benzamide] | stagnates prostate cancer cell proliferation | stagnates prostate cancer cell proliferation | stagnates prostate cancer cell proliferation | stagnates prostate cancer cell proliferation | stagnates prostate cancer cell proliferation | stagnates prostate cancer cell proliferation
2 |  | 5.16 | found to bind to AR-v7 | Cc1c(C(=O)N(C)Cc2cccc3ncccc23)sc2ncnc(NCC3C[C@@H]4C=C[C@H]3C4)c12 (stereo partly drawn) [Compound (2), 4-((((1R,4R)-bicyclo[2.2.1]hept-5-en-2-yl)methyl)amino)-N,5-dimethyl-N-(quinolin-5-ylmethyl)thieno[2,3-d]pyrimidine-6-carboxamide] |  |  |  |  |  | 
